Source: patent US5726302A, “Water soluble adenosine kinase inhibitors” (Gensia Inc., priority 1995, dated 1998)
Counter-ions that a name gives are not always drawn. Blank lines part the entries; values can stand above or below the compound they belong to.

Columns and labels:
Water solubility = type: physicochemical
Experimental: The sample was sonicated for a period of up to 20 minutes. If a solution was not obtained, further solvent was added and the process was repeated until a clear solution was obtained, and the results were recorded. Solutions used were 50 mM potassium biphthalate (pH 4); 100 mM glycine (pH 9); 25 mM sodium carbonate and 25 mM sodium bicarbonate (pH 10); or deionized water (DI).

male SA rats [1] = experiment: Anticonvulsant activity, maximal electroshock (MES) model; type: in vivo; conditions: Rattus norvegicus, 1 h
Experimental: The anticonvulsant activity of the tested compounds was evaluated in male SA rats (100-150 g, Simonsen) using the maximal electroshock (MES) model described in Swinyard et al., Antiepileptic Drugs, 3d Ed. at 85-102 (Levy, et al., eds.), N.Y.: Raven Press (1989). The rats were maintained on a 12/12 light/dark cycle in temperature controlled facilities with free access to food and water. For p.o. administration, the animals are fasted overnight, prior to the experiment. One hour prior to seizure testing, the animals were injected interperitoneally (ip) or orally (per os, […]) with one of various doses of test compound dissolved in DMSO or PEG 400.
This endpoint was expressed as the percentage of animals in which the response was inhibited.

[2] = target: partially purified pig heart adenosine kinase (Sus scrofa, UniProt A0A5G2R0F5); experiment: biochemical; conditions: pig heart adenosine kinase; 0.5 μM adenosine, pH 7.0, 20 minutes at 37° C; read-out: AK Inhibition (IC50)
Sequence of partially purified pig heart adenosine kinase (A0A5G2R0F5 1-362): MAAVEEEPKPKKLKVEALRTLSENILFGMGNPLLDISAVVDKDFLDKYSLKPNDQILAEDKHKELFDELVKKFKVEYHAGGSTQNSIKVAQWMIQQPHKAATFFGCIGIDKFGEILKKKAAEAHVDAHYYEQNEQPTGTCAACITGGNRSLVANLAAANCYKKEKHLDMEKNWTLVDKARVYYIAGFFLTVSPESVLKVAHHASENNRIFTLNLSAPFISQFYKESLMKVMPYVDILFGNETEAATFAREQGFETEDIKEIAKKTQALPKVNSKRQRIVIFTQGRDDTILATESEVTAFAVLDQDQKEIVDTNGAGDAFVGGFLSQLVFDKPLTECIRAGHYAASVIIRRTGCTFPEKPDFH
Experimental: Adenosine kinase activity was measured essentially as described by Yamada et al Biochim. Biophys. Acta 660, 36-43 (1988) with a few minor modifications. Assay mixtures contained 50 mM TRIS-maleate buffer, pH 7.0, 0.1% BSA, 1 mM ATP 1 mM MgCl2, 0.5 μM [U-^14 C] adenosine (400-600 mCi/mmol) and varying duplicate concentrations of inhibitor. The reactions were initiated by addition of approximately 0.1 μU partially purified pig heart adenosine kinase, where one unit is defined as that amount of enzyme required to phosphorylate 1 μmol adenosine per minute. The reactions were incubated for 20 minutes at 37° C. The assay was quenched upon spotting 30 μL aliquots onto 2 cm^2 pieces of Whatman DE81 anion exchange paper. The paper squares were washed for 3 minutes in 6 L distilled/deionized water to remove the unreacted adenosine. […] The amount of ^14 C-AMP was quantified by scintillation counting.

Rats = experiment: Anti-inflammatory activity, carrageenan paw; type: in vivo, rat; conditions: 10 mg/kg, swelling after 3 hours
Experimental: Carrageenan (Type λ) was suspended in sterile PBS at 1% (w/v), autoclaved for 30 minutes, and stored at room temperature. Rats were pretreated with vehicle or AK inhibitor (10 mg/kg) by oral gavage or i.p. administration and the volume of the left hind paw was measured using a water displacement plethysmometer (Stoelting Co., Wood Dale, Ill.). One hour after oral treatment or 30 minutes after i.p. treatment, the rats were briefly anesthetized, and 0.1 ml of the carrageenan solution was injected subcutaneously into the planar surface of the left hind paw. The ensuing paw swelling was measured by plethysmometry after 3 hours. The paw volume in millileters was subtracted from the pre-injection paw volume. Data are presented as the percent inhibition of paw swelling in AK inhibitor treated animals, compared to vehicle treated control animals.

male SA rats [3] = experiment: Analgesic activity, hot plate; type: in vivo; conditions: Rattus norvegicus, ip
male SA rats [4] = experiment: Analgesic activity, tail flick; type: in vivo; conditions: Rattus norvegicus, ip
anesthetized rats = conditions: cited from earlier work
Female SA rats = experiment: Liver toxicity assay; type: in vivo, rat; conditions: iv infusion 2 x 37.5 μmole/kg, 12 hours after second dose
Experimental: Female SA rats (150-200 g) are anesthetized with halothane and cannulated via the internal jugular vein. The animals are allowed to recover for 3 days. At this time, 37.5 μmole/kg of an AK inhibitor is dissolved in 50% PEG400 and infused through the jugular catheter over 20 minutes. Twelve hours later, an additional 37.5 μmole/kg is infused over 20 minutes (total dose=75 μmole/kg). […] Liver enzymes (serum glutamic-oxaloacetic transaminase (SGOT), serum glutamic-pyruvic transaminase (SGPT), alkaline phosphatase) and total bilirubin in the serum samples are determined by a commercial laboratory.

mice = conditions: cited from earlier work
[5] = po, one hour after dosing, fasted
[6] = pH 4 (50 mM potassium biphthalate)
[7] = ip, 30 minutes before carrageenan
[8] = po, one hour before carrageenan

water solubility (Water solubility; pH suitable for i.v. administration (e.g. pH 4 to 10)): less than 20 μg/ml
SMILES: C[C@H]1O[C@@H](n2cc(-c3ccccc3)c3c(Nc4ccccc4)ncnc32)[C@H](O)[C@@H]1O [5-phenyl-4-N-phenylamino-7-(5-deoxy-1-β-D-ribofuranosyl)pyrrolo[2,3-d]pyrimidine, reference compound]

IC50 [2]: 2 nM | solubility (Water solubility; [6]): > 1000 µg/mL
SMILES: C[C@H]1O[C@@H](n2cc(-c3ccccc3)c3c(Nc4ccc(CCN5CCOCC5)cc4)ncnc32)[C@H](O)[C@@H]1O [Compound 3, 4-N[2-(4-morpholino)ethylphenyl]amino-5-phenyl-7-(5-deoxy-β-D-ribofuranosyl)pyrrolo[2,3-d]pyrimidine]
ED50 (male SA rats [1]; [5]): > 40 mg/kg

solubility (Water solubility; [6]): > 1000 µg/mL
SMILES: C[C@H]1O[C@@H](n2cc(-c3ccccc3)c3c(Nc4ccc(CCN5CCNCC5)cc4)ncnc32)[C@H](O)[C@@H]1O [Compound 4, 4-N[2-(1-piperazino)ethylphenyl]amino-5-phenyl-7-(5-deoxy-β-D-ribofuranosyl)pyrrolo[2,3-d]pyrimidine]
Carrageenan Paw (% inhibition) of paw swelling (Rats; [7]): 39.9% | Carrageenan Paw (% inhibition) of paw swelling (Rats; [8]): 2.5%

IC50 [2]: 1 nM | solubility (Water solubility; deionized water (DI)): > 5000 µg/mL
SMILES: CCN(CC)CCNCCc1ccc(Nc2ncnc3c2c(-c2ccccc2)cn3[C@@H]2O[C@H](C)[C@@H](O)[C@H]2O)cc1 [Compound 5, 4-N[2-(2-N,N-diethylaminoethyleneamino)ethylphenyl]amino-5-phenyl-7-(5-deoxy-β-D-ribofuranosyl)pyrrolo[2,3-d]pyrimidine]
Carrageenan Paw (% inhibition) of paw swelling (Rats; [7]): -3.4% | Carrageenan Paw (% inhibition) of paw swelling (Rats; [8]): 4.1%

IC50 [2]: 1 nM | solubility (Water solubility; [6]): > 1000 µg/mL
SMILES: CCN(CC)CCc1ccc(Nc2ncnc3c2c(-c2ccccc2)cn3[C@@H]2O[C@H](C)[C@@H](O)[C@H]2O)cc1 [Compound 6, 4-N[2-N,N-diethylaminoethylphenyl]amino-5-phenyl-7-(5-deoxy-β-D-ribofuranosyl)pyrrolo[2,3-d]pyrimidine]

IC50 [2]: 1 nM | solubility (Water solubility; [6]): > 1000 µg/mL
SMILES: C[C@H]1O[C@@H](n2cc(-c3ccccc3)c3c(Nc4ccc(CCN(C)C)cc4)ncnc32)[C@H](O)[C@@H]1O [Compound 7, 4-N[2-N,N-dimethylaminoethylphenyl]amino-5-phenyl-7-(5-deoxy-β-D-fibofuranosyl)pyrrolo[2,3-d]pyrimidine]
Carrageenan Paw (% inhibition) of paw swelling (Rats; [7]): 19.0% | Carrageenan Paw (% inhibition) of paw swelling (Rats; [8]): 7.7%

solubility (Water solubility; sodium carbonate/sodium bicarbonate buffer, pH 10 (25 mM sodium carbonate and 25 mM sodium bicarbonate)): > 1000 µg/mL
SMILES: C[C@H]1O[C@@H](n2cc(-c3ccccc3)c3c(Nc4ccc(NS(=O)(=O)C(F)(F)F)cc4)ncnc32)[C@H](O)[C@@H]1O [Compound 8, 4-N-(4-N-trifluoromethanesulfonylaminophenyl)amino-5-phenyl-7-(5-deoxy-1-β-D-ribofuranosyl) pyrrolo(2,3-d)pyrimidine]

solubility (Water solubility; [6]): > 1000 µg/mL
SMILES: C[C@H]1O[C@@H](n2cc(-c3ccccc3)c3c(Nc4ccc(CCN)cc4)ncnc32)[C@H](O)[C@@H]1O [Compound 22, 4-N-(2-Aminoethylphenyl)amino-5-phenyl-7-(5-deoxy-β-D-ribofuranosyl)pyrrolo[2,3-d]pyrimidine]
Carrageenan Paw (% inhibition) of paw swelling (Rats; [7]): 31.6% | Carrageenan Paw (% inhibition) of paw swelling (Rats; [8]): 12.4%

IC50 [2]: 5 nM
SMILES: C[C@H]1O[C@@H](n2cc(-c3ccccc3)c3c(Nc4ccc(C(N)=NO)cc4)ncnc32)[C@H](O)[C@@H]1O [Compound 37, 4-N-(4-amidoximephenyl)amino-5-phenyl-7-(5-deoxy-1-β-D-ribofuranosylpyrrolo[2,3-d]pyrimidine hydrochloride]

IC50 [2]: 3000 nM | solubility (Water solubility; pH 9 (100 mM glycine)): > 1000 µg/mL
SMILES: CC(=O)NS(=O)(=O)c1ccc(Nc2ncnc3c2c(-c2ccccc2)cn3[C@@H]2O[C@H](C)[C@@H](O)[C@H]2O)cc1 [Compound 40]
ED50 (male SA rats [1]; ip): > 5 mg/kg

IC50 [2]: 70 nM
SMILES: C[C@H]1O[C@@H](n2cc(I)c3c(NCc4ccccn4)ncnc32)[C@H](O)[C@@H]1O [Compound 41, 4-N-(2-Pyridylmethylamino)-5-iodo-7-(5-deoxy-1 -β-D-ribofuranosyl)pyrrolo[2,3-d]pyrimidine]
ED50 (male SA rats [3]): 1.2 mg/kg | ED50 (male SA rats [4]): < 1 mg/kg | Carrageenan Paw (% inhibition) of paw swelling (Rats; [7]): 84.8% | Carrageenan Paw (% inhibition) of paw swelling (Rats; [8]): 90.6%

SMILES: C[C@H]1O[C@@H](n2cc(I)c3c(NCc4ccncc4)ncnc32)[C@H](O)[C@@H]1O [Compound 42, 4-N-(4-pyridylmethylamino)-5-iodo-7-(5-deoxy-1-β-D-ribofuranosyl)pyrrolo[2,3-d]pyrimidine]
ED50 (male SA rats [1]; ip): 2 mg/kg

IC50 [2]: 120 nM
SMILES: C[C@H]1O[C@@H](n2cc(I)c3c(NCc4cccnc4)ncnc32)[C@H](O)[C@@H]1O [Compound 44, 4-N-(3-pyridylmethylamino)-5-iodo-7-(5-deoxy-1-β-D-ribofuranosyl)pyrrolo[2,3-d]pyrimidine]

IC50 [2]: 500 nM
SMILES: C[C@H]1O[C@@H](n2cc(I)c3c(NCc4nc5ccccc5[nH]4)ncnc32)[C@H](O)[C@@H]1O [Compound 45, 4-N-(2-benzimidazolylmethyl)amino-5-iodo-7-(5-deoxy-1-β-D-ribofuranosyl) pyrrolo[(2,3-d)]pyrimidine]

IC50 [2]: 220 nM
SMILES: OC[C@@H]1O[C@@H](n2cc(I)c3c(NCc4ccccn4)ncnc32)[C@H](O)[C@@H]1O [Compound 46, 4-N-(2-pyridylmethyl)amino-5-iodo-7-(α-L-lyxofuranosyl)pyrrolo(2,3-d)pyrimidine]

IC50 [2]: 55 nM
SMILES: C[C@H]1O[C@@H](n2cc(-c3cccnc3)c3c(Nc4ccccc4)ncnc32)[C@H](O)[C@@H]1O [Compound 47, 4-N-Phenylamino-5-(3-pyridino)-7-(5-deoxy-1-β-D-ribofuranosyl) pyrrolo[2,3-d]pyrimidine]
Carrageenan Paw (% inhibition) of paw swelling (Rats; [7]): -4.4% | Carrageenan Paw (% inhibition) of paw swelling (Rats; [8]): 9.8%

IC50 [2]: 300 nM
SMILES: C[C@H]1O[C@@H](n2cc(-c3cccnc3)c3c(NCc4ccccn4)ncnc32)[C@H](O)[C@@H]1O [Compound 48, 4-N-(2-pyridylmethyl)amino-5-(3-pyridino)-7-(5-deoxy-1-β-D-ribofuranosyl)pyrrolo[2,3-d]pyrimidine]

IC50 [2]: 67 nM
SMILES: C[C@H]1O[C@@H](n2cc(-c3ccccc3)c3c(NCc4ccncc4)ncnc32)[C@H](O)[C@@H]1O [Compound 49, 4-N-(4-pyridylmethyl)amino-5-phenyl-7-(5-deoxy-1-β-D-ribofuranosyl)-pyrrolo[2,3-d]pyrimidine]
ED50 (male SA rats [1]; [5]): 40 mg/kg

SMILES: C[C@H]1O[C@@H](n2cc(I)c3c(N)ncnc32)[C@H](O)[C@@H]1O [REF. A]
blood pressure (anesthetized rats): decrease blood pressure | heart rate (anesthetized rats): decrease blood pressure and heart rate | Alkaline Phosphatase (Female SA rats): 163 IU/L | SGOT (Female SA rats): 508 IU/L | SGPT (Female SA rats): 76 IU/L | Total Bilirubin (Female SA rats): 0.76 mg/dL | general flaccidity (skeletal muscle relaxation) (mice): pronounced general flaccidity | hypothermia (mice): hypothermia | spontaneous locomotor activity (mice): much-reduced spontaneous locomotor activity

SMILES: NC[C@H]1O[C@@H](n2nc(Br)c3c(N)ncnc32)[C@H](O)[C@@H]1O [REF. B, 4amino-1-(5-amino-5-deoxy-1-D-ribofuranosyl)-3-bromopyrazolo[3,4d]pyrimidne HCL]
Alkaline Phosphatase (Female SA rats): 113 IU/L | SGOT (Female SA rats): 100 IU/L | SGPT (Female SA rats): 41 IU/L | Total Bilirubin (Female SA rats): 0.30 mg/dL
